# Data taken from ChEMBL document CHEMBL4507287, “Data for DCP probe MRL-650” (2021).
# Legend:
# [1] = molecular target: Mitogen-activated protein kinase kinase kinase 6 (Homo sapiens) (UniProt O95382); settings: Compound concentration 1000.0 nM
# [2] = molecular target: Non-receptor tyrosine-protein kinase TYK2 (Homo sapiens) (UniProt P29597); settings: Compound concentration 1000.0 nM
# [3] = molecular target: Aurora kinase B (Homo sapiens) (UniProt Q96GD4); settings: Compound concentration 1000.0 nM
# [4] = molecular target: Phosphatidylinositol 5-phosphate 4-kinase type-2 gamma (Homo sapiens) (UniProt Q8TBX8); settings: Compound concentration 1000.0 nM
# [5] = test system: Tyrosine-protein kinase ABL1 (Homo sapiens), P00519 [H396P]; settings: Compound concentration 1000.0 nM
# [6] = molecular target: Mitogen-activated protein kinase kinase kinase 1 (Homo sapiens) (UniProt Q13233); settings: Compound concentration 1000.0 nM
# [7] = test system: Phosphatidylinositol 4,5-bisphosphate 3-kinase catalytic subunit alpha isoform (Homo sapiens), P42336 [C420R]; settings: Compound concentration 1000.0 nM
# [8] = molecular target: Calcium/calmodulin-dependent protein kinase type 1G (Homo sapiens) (UniProt Q96NX5); settings: Compound concentration 1000.0 nM
# [9] = test system: Tyrosine-protein kinase ABL1 (Homo sapiens), P00519 [T315I]; settings: Compound concentration 1000.0 nM
# [10] = molecular target: Serine/threonine-protein kinase Nek2 (Homo sapiens) (UniProt P51955); settings: Compound concentration 1000.0 nM
# [11] = molecular target: MAP kinase-interacting serine/threonine-protein kinase 2 (Homo sapiens) (UniProt Q9HBH9); settings: Compound concentration 1000.0 nM
# [12] = test system: Phosphatidylinositol 4,5-bisphosphate 3-kinase catalytic subunit alpha isoform (Homo sapiens), P42336 [E545A]; settings: Compound concentration 1000.0 nM
# [13] = molecular target: Calcium/calmodulin-dependent protein kinase type II subunit alpha (Homo sapiens) (UniProt Q9UQM7); settings: Compound concentration 1000.0 nM
# [14] = molecular target: RAC-gamma serine/threonine-protein kinase (Homo sapiens) (UniProt Q9Y243); settings: Compound concentration 1000.0 nM
# [15] = molecular target: Focal adhesion kinase 1 (Homo sapiens) (UniProt Q05397); settings: Compound concentration 1000.0 nM
# [16] = molecular target: Bone morphogenetic protein receptor type-2 (Homo sapiens) (UniProt Q13873); settings: Compound concentration 1000.0 nM
# [17] = molecular target: Ephrin type-A receptor 5 (Homo sapiens) (UniProt P54756); settings: Compound concentration 1000.0 nM
# [18] = molecular target: Cyclin-dependent kinase 19 (Homo sapiens) (UniProt Q9BWU1); settings: Compound concentration 1000.0 nM
# [19] = molecular target: Serine/threonine-protein kinase tousled-like 1 (Homo sapiens) (UniProt Q9UKI8); settings: Compound concentration 1000.0 nM
# [20] = molecular target: Serine/threonine-protein kinase 17A (Homo sapiens) (UniProt Q9UEE5); settings: Compound concentration 1000.0 nM
# [21] = molecular target: Serine/threonine-protein kinase Nek9 (Homo sapiens) (UniProt Q8TD19); settings: Compound concentration 1000.0 nM
# [22] = test system: Receptor-type tyrosine-protein kinase FLT3 (Homo sapiens), P36888 [N841I]; settings: Compound concentration 1000.0 nM
# [23] = test system: Receptor-type tyrosine-protein kinase FLT3 (Homo sapiens), P36888 [D835Y]; settings: Compound concentration 1000.0 nM
# [24] = test system: Phosphatidylinositol 4,5-bisphosphate 3-kinase catalytic subunit alpha isoform (Homo sapiens), P42336 [E542K]; settings: Compound concentration 1000.0 nM
# [25] = molecular target: Cyclin-dependent kinase 5 (Homo sapiens) (UniProt Q00535); settings: Compound concentration 1000.0 nM
# [26] = molecular target: Phosphatidylinositol 4,5-bisphosphate 3-kinase catalytic subunit alpha isoform (Homo sapiens) (UniProt P42336); settings: Compound concentration 1000.0 nM
# [27] = molecular target: Proto-oncogene tyrosine-protein kinase Src (Homo sapiens) (UniProt P12931); settings: Compound concentration 1000.0 nM
# [28] = molecular target: Mitogen-activated protein kinase kinase kinase 19 (Homo sapiens) (UniProt Q56UN5); settings: Compound concentration 1000.0 nM
# [29] = molecular target: Serine/threonine-protein kinase PAK 5 (Homo sapiens) (UniProt Q9P286); settings: Compound concentration 1000.0 nM
# [30] = test system: Mast/stem cell growth factor receptor Kit (Homo sapiens), P10721 [V559D,V654A]; settings: Compound concentration 1000.0 nM
# [31] = molecular target: Tyrosine-protein kinase Srms (Homo sapiens) (UniProt Q9H3Y6); settings: Compound concentration 1000.0 nM
# [32] = test system: Epidermal growth factor receptor (Homo sapiens), P00533 [L861Q]; settings: Compound concentration 1000.0 nM
# [33] = molecular target: Activated CDC42 kinase 1 (Homo sapiens) (UniProt Q07912); settings: Compound concentration 1000.0 nM
# [34] = test system: Tyrosine-protein kinase ABL1 (Homo sapiens), P00519 [F317L]; settings: Compound concentration 1000.0 nM
# [35] = molecular target: cAMP-dependent protein kinase catalytic subunit beta (Homo sapiens) (UniProt P22694); settings: Compound concentration 1000.0 nM
# [36] = molecular target: Ankyrin repeat and protein kinase domain-containing protein 1 (Homo sapiens) (UniProt Q8NFD2); settings: Compound concentration 1000.0 nM
# [37] = molecular target: Protein kinase C epsilon type (Homo sapiens) (UniProt Q02156); settings: Compound concentration 1000.0 nM
# [38] = molecular target: Interleukin-1 receptor-associated kinase 4 (Homo sapiens) (UniProt Q9NWZ3); settings: Compound concentration 1000.0 nM
# [39] = molecular target: 5-hydroxytryptamine receptor 1B (Homo sapiens) (UniProt P28222); settings: Compound concentration 10.0 uM
# [40] = test system: Mast/stem cell growth factor receptor Kit (Homo sapiens), P10721 [V559D]; settings: Compound concentration 1000.0 nM
# [41] = molecular target: Serine/threonine-protein kinase 35 (Homo sapiens) (UniProt Q8TDR2); settings: Compound concentration 1000.0 nM
# [42] = molecular target: Serine/threonine-protein kinase 32A (Homo sapiens) (UniProt Q8WU08); settings: Compound concentration 1000.0 nM
# [43] = molecular target: Mitogen-activated protein kinase kinase kinase 15 (Homo sapiens) (UniProt Q6ZN16); settings: Compound concentration 1000.0 nM
# [44] = molecular target: Tyrosine-protein kinase SYK (Homo sapiens) (UniProt P43405); settings: Compound concentration 1000.0 nM
# Mast/stem cell growth factor receptor Kit (Homo sapiens), P10721 [V559D,V654A], sequence (P10721 whole entry V559D/V654A): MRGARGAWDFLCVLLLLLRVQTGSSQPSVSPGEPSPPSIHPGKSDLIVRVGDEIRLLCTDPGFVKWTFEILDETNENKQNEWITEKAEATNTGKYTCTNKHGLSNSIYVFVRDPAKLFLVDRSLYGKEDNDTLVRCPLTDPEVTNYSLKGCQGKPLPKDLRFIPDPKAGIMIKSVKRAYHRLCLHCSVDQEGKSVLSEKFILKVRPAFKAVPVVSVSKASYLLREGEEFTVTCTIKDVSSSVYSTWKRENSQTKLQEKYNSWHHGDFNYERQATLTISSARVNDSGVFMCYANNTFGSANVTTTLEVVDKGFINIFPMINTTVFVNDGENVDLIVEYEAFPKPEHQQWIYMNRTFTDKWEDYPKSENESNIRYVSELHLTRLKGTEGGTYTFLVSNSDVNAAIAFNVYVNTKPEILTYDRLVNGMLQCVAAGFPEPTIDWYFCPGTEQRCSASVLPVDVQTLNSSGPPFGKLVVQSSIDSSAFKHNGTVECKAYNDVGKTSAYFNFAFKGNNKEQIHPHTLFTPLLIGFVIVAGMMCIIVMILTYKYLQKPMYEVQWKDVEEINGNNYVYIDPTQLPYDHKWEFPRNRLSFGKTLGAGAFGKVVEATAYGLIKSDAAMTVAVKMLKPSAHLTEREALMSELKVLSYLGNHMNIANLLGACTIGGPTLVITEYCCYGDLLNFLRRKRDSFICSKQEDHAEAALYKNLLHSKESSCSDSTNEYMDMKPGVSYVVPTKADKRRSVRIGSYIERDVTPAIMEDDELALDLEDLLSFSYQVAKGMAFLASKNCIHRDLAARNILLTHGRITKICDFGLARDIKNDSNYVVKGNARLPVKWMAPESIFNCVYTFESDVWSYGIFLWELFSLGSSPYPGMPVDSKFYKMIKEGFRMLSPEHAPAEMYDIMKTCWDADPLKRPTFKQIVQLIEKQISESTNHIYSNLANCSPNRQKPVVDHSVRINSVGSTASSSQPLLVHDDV
# Serine/threonine-protein kinase PAK 5 (Homo sapiens), sequence (Q9P286 whole entry, looked up): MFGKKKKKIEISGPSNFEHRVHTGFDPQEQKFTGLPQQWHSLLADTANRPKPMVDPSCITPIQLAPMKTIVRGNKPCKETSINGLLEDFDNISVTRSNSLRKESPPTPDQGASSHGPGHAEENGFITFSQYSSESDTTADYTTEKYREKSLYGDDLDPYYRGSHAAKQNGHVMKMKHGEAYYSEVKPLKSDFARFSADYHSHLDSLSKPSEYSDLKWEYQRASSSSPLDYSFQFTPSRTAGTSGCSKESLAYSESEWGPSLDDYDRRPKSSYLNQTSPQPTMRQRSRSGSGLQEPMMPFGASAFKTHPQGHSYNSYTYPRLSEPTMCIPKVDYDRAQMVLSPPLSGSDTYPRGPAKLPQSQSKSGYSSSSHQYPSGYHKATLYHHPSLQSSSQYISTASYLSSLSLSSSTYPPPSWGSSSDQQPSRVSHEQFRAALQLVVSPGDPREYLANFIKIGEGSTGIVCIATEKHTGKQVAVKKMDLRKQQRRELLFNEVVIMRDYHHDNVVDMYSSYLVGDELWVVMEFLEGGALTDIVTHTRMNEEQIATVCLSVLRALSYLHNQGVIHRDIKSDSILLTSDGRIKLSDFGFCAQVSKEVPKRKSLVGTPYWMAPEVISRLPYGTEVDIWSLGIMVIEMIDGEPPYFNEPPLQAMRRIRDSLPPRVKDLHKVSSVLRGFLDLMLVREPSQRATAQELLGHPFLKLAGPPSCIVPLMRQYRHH
# Phosphatidylinositol 4,5-bisphosphate 3-kinase catalytic subunit alpha isoform (Homo sapiens), P42336 [E545A], sequence (P42336 whole entry E545A, canonical isoform): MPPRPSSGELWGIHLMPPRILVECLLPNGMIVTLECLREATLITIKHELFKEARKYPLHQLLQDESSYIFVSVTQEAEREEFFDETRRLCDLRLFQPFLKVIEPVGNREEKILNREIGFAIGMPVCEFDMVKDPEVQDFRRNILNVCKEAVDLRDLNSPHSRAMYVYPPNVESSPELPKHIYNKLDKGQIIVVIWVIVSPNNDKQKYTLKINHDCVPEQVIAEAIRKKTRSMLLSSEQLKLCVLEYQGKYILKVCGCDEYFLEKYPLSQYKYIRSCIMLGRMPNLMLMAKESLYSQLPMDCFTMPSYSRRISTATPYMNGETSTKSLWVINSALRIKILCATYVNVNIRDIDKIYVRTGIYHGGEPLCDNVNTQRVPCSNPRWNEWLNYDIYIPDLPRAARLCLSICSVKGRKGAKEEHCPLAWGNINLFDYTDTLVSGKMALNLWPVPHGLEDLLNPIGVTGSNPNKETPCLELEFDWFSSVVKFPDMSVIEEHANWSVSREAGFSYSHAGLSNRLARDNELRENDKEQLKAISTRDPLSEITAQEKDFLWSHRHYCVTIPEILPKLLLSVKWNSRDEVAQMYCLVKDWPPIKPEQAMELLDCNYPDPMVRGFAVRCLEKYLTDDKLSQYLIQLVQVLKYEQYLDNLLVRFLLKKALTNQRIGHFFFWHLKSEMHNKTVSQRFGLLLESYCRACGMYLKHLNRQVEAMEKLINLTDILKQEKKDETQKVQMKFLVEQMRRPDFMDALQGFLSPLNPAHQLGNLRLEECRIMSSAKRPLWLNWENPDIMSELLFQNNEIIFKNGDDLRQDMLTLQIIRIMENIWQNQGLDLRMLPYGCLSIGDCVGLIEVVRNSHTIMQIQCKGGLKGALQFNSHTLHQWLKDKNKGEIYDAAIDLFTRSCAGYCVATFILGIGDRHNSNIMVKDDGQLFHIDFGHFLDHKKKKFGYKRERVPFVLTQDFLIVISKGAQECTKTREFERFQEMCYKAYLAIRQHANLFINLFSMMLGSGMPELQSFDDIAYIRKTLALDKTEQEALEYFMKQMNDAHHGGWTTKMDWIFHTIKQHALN
# Mitogen-activated protein kinase kinase kinase 19 (Homo sapiens), sequence (Q56UN5 whole entry): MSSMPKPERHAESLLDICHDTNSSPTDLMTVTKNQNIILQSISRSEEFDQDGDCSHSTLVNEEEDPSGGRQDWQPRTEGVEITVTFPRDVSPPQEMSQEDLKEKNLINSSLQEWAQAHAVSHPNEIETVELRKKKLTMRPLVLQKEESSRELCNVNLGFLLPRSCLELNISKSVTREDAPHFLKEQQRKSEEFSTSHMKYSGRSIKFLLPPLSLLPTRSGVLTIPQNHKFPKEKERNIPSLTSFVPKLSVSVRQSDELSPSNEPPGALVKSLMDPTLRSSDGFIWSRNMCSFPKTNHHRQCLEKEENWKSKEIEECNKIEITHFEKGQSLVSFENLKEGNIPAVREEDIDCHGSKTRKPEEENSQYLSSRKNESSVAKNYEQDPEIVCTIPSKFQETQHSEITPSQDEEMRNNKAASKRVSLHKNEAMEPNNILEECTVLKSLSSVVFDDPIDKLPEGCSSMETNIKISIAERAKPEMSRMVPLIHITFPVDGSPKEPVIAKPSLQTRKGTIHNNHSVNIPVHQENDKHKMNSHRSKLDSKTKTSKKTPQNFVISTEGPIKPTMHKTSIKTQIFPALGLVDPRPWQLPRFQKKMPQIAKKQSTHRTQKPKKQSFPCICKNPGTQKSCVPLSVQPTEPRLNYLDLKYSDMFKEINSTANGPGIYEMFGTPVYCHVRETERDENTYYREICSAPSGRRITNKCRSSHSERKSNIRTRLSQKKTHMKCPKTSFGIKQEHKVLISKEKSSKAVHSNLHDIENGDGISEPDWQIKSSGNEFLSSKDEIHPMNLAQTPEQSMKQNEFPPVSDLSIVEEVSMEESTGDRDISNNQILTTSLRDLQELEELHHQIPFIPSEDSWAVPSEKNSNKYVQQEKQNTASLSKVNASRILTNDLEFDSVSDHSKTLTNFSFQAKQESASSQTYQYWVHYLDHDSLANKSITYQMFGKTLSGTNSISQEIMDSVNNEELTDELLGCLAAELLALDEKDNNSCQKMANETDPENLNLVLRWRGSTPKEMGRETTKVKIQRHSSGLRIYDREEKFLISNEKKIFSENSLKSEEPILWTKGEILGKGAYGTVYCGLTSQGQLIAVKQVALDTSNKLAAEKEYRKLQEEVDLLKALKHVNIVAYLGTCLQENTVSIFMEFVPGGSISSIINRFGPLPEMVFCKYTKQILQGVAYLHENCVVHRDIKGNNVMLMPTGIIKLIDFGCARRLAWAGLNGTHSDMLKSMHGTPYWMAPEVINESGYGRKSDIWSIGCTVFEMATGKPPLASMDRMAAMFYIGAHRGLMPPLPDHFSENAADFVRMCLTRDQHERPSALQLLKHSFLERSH
# Mast/stem cell growth factor receptor Kit (Homo sapiens), P10721 [V559D], sequence (P10721 whole entry V559D): as the sequence (P10721 whole entry V559D/V654A) above, with A654V counted along it
structure (smiles),measurement,setting,value
CC(=O)c1c(NS(C)(=O)=O)c2cc(-c3ccc(Cl)cc3)c(-c3ccc(Cl)cc3Cl)nc2n(C)c1=O [MRL-CB1-NC],residual activity,[1],83%
same,residual activity,[2],89%
same,residual activity,[3],100%
same,residual activity,[4],100%
same,residual activity,[5],100%
same,residual activity,[6],94%
same,residual activity,[7],93%
same,residual activity,[8],100%
same,residual activity,[9],86%
same,residual activity,[10],100%
same,residual activity,[11],75%
same,residual activity,[12],100%
same,residual activity,[13],100%
same,residual activity,[14],91%
same,residual activity,[15],100%
same,residual activity,[16],100%
same,residual activity,[17],100%
same,residual activity,[18],100%
same,residual activity,[19],95%
same,residual activity,[20],88%
same,residual activity,[21],100%
same,residual activity,[22],100%
same,residual activity,[23],95%
same,residual activity,[24],76%
same,residual activity,[25],100%
same,residual activity,[26],100%
same,residual activity,[27],100%
same,residual activity,[28],85%
same,residual activity,[29],98%
same,residual activity,[30],89%
same,residual activity,[31],71%
same,residual activity,[32],100%
same,residual activity,[33],92%
same,residual activity,[34],89%
same,residual activity,[35],92%
same,residual activity,[36],70%
same,residual activity,[37],96%
same,residual activity,[38],95%
same,inhibition,[39],-2.36%
same,residual activity,[40],100%
same,residual activity,[41],100%
same,residual activity,[42],87%
same,residual activity,[43],91%
same,residual activity,[44],100%
CC(=O)Nc1c(C(C)=O)c(=O)n(C)c2nc(-c3ccc(Cl)cc3Cl)c(-c3ccc(Cl)cc3)cc12 [NAPHTHYRIDINONE],residual activity,[1],94%
same,residual activity,[2],100%
same,residual activity,[3],92%
same,residual activity,[4],100%
same,residual activity,[5],100%
same,residual activity,[6],100%
same,residual activity,[7],88%
same,residual activity,[8],100%
same,residual activity,[9],89%
same,residual activity,[10],100%
same,residual activity,[11],100%
same,residual activity,[12],85%
same,residual activity,[13],100%
same,residual activity,[14],100%
same,residual activity,[15],100%
same,residual activity,[16],100%
same,residual activity,[17],100%
same,residual activity,[18],100%
same,residual activity,[19],100%
same,residual activity,[20],100%
same,residual activity,[21],100%
same,residual activity,[22],100%
same,residual activity,[23],100%
same,residual activity,[24],94%
same,residual activity,[25],100%
same,residual activity,[26],100%
same,residual activity,[27],100%
same,residual activity,[28],100%
same,residual activity,[29],100%
same,residual activity,[30],100%
same,residual activity,[31],78%
same,residual activity,[32],100%
same,residual activity,[33],100%
same,residual activity,[34],100%
same,residual activity,[35],100%
same,residual activity,[36],100%
same,residual activity,[37],48%
same,residual activity,[38],100%
same,inhibition,[39],43.6%
same,residual activity,[40],100%
same,residual activity,[41],100%
same,residual activity,[42],82%
same,residual activity,[43],100%
same,residual activity,[44],96%
